Measurements as given in patent US20060068386A1, “Complete genome and protein sequence of the hyperthermophile methanopyrus kandleri av19 and monophyly of archael methanogens and methods of use thereof” (priority 2002, published 2006).
Where two headings read alike, the source gives them in different places. Blank lines part the entries; values can stand above or below the molecule they belong to.

What was measured:
polB DNA polymerase = assay: Thermostability of polB DNA polymerase in various media; assay type: biochemical, Methanopyrus kandleri; conditions: 1 M Betaine, potassium glutamate, 100° C.
Description: To determine DNA polymerase activity and thermostability of DNA polymerase polB in various media. Proteins in 25 μl of 20 mM Tris-HCl buffer (pH 8.0 at 25° C.) containing indicated concentrations of salts and betaine were incubated in PTC-150 Minicycler (MJ Research) at 95° C. or 100° C. 4 μl samples were removed at defined times of incubation and assayed for primer extension activity.
The stabilizing effect of betaine is diminished in the presence of organic solvents DMSO and formamide.

M.K. polB DNA polymerase = M.K. polB DNA polymerase (Methanopyrus kandleri, UniProt Q8TWJ5); assay: Effects of media components on M.K. polB DNA polymerase activity (primer extension); assay type: biochemical
Description: DNA polymerase reaction mixtures (15-20 μl) contained dATP, dTTP, dCTP, and dGTP (1 mM each), 4.5 mM MgCl2, detergents Tween 20 and Nonidet P-40 (0.2% each), fixed concentrations of PTJ—duplex, other additions, as indicated, and appropriate amounts of polB in 30 mM Tris-HCl buffer pH 8.0 (25° C.). The background reaction mixtures contained all components except DNA polymerases. Primer extensions were carried out for a preset time at 75° C. in PTC-150 Minicycler (MJ Research, Inc.; Waltham, Mass.). 5 μl samples were removed and chilled to 4° C. followed by immediate addition of 20 μl of 20 mM EDTA. The samples were desalted by centrifugation through Sephadex G-50 spun columns, diluted, and analyzed on a ABI Prism 377 DNA sequencer (Applied BioSystems; Foster City, Calif.). For each sample, raw data were extracted from the sequencer trace files with the program Chromas 1.5 (Technelysium Pty Ltd., Australia), and the fluorescent signals were analyzed by our nonlinear regression data analysis programs written in Fortran. The programs applied Powell algorithms to approximate the signals by a number of Gaussian peaks and calculate integral fluorescent intensities for each product peak. The total amount of fluorescent products for each time of incubation was determined, and the initial rates of extension were calculated.
The next two tables (Table 4 and 5) display effects of various media components on M.K. polB DNA polymerase activity. Initial rates of primer extension reaction were measured as described by Pavlov et al., 2002.

[1] = test system: Mka PolB 3'-5' exonuclease activity; assay: Effect of salts on 3'-5' exonuclease activity of Mka PolB; assay type: biochemical, Methanopyrus kandleri
Description: A 3′→5′ exonuclease activity of polB polymerase was measured at the same conditions as in the primer extension assay, except omitting dideoxynucleotides. A fluorescent primer:
Conclusions: • 1. KGlu inhibits the 3′-5′ exonuclease activity of Mka PolB, while NaCl stimulates it. • 2. KGlu, diphosphoglycerate, and Mka PCNA (see below) increase the polymerase activity of PolB. • 3.

[2] = test system: DNA duplex of FIG. 16 (PTJ); assay: Initial rates of primer extension reactions in salts (inhibition of polymerases and chimeras by NaCl, KCl, K-Glu); assay type: biochemical
Description: The polymerase activities of the four chimeras were tested by measuring initial rates of primer extension reactions. The reactions were carried out at low concentrations of substrate, when the initial rates were proportional both to total protein and PTJ concentrations. When [PTJ] is much less than Kmapp, the initial rate is determined as in Equation 1: v1=kapp/Kmapp*[Et]*[PTJ]1 Eq. 1 • where Kmapp and kapp are apparent Michaelis and catalytic constants, respectively.
The concentrations of sodium chloride (NaCl), potassium chloride (KCl) and potassium glutamate (K-Glu) were varied to assess inhibition of the Stoffel fragment and KlenTaq, and the four chimeras by salts, and to estimate the effects of the HhH domains.
Experimental values of initial polymerization rates were analyzed by nonlinear regression analysis using Equation 2: [formula] where v and v0 are initial primer extension rates with and without salt, respectively, Ki is the apparent inhibition constant; and α is the cooperativity parameter.
In Table 2, to take into account the activation of Pfu polymerase and the PfuC2 hybrid by KGlu (data entries marked with an asterisk (*), the experimental values of initial polymerization rates were analyzed by nonlinear regression using the Equation 3: [formula]
where v and v0 are initial primer extension rates with and without salt, respectively; Ki is an apparent inhibition constant, α is a parameter of cooperativity, β and γ are parameters of activation. Since γ≅2, it is likely that two ions of Glu^− bind to the Pfu polymerase catalytic domain without inhibiting the polymerase activity.

M.K. polB DNA polymerase, sequence (Q8TWJ5 entry or part of it): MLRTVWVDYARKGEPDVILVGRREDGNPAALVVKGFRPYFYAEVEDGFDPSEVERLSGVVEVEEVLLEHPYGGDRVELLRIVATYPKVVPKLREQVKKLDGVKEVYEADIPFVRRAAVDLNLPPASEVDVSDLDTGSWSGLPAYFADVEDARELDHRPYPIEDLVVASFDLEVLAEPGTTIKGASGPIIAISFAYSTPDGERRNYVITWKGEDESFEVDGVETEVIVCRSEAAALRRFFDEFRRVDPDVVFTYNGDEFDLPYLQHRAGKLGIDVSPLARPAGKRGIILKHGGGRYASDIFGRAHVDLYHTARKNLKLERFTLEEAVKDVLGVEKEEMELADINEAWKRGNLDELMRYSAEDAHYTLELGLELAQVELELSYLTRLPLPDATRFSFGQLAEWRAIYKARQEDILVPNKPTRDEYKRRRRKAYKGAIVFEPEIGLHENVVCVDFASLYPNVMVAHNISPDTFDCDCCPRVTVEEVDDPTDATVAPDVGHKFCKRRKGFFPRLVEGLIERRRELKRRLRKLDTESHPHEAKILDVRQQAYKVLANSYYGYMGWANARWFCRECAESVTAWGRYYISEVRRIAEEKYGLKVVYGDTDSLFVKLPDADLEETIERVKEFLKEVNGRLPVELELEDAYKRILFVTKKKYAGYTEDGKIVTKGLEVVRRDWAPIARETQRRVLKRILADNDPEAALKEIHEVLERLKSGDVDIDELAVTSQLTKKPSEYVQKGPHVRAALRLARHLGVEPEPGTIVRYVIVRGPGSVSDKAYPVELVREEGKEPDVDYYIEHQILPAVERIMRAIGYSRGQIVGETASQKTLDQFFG

Molecule: C[N+](C)(C)CC(=O)O [Betaine]
effect on thermostability of polB DNA polymerase (polB DNA polymerase): stabilize specifically polB DNA polymerase

Molecule: O=C(O)[C@@H](COP(=O)(O)O)OP(=O)(O)O [diphosphoglycerate]
effect on polymerase activity of PolB (M.K. polB DNA polymerase): increase

Molecule: N[C@@H](CCC(=O)[O-])C(=O)[O-].[K+].[K+] [KGlu, potassium glutamate]
effect on 3'-5' exonuclease activity of Mka PolB [1]: inhibits | effect on polymerase activity of PolB (M.K. polB DNA polymerase): increase | increase of polymerase activity of polB (M.K. polB DNA polymerase; 0.8 M of the salt): about twenty-fold

increase of Ki on substituting KCl with KGlu ([2]; KGlu versus KCl): 4 fold
Molecule: Taq Polymerase: DNA polymerase from Thermus aquaticus [reference compound]
NaCl concentration at which 20% inhibition of primer extension reaction occurs ([2]; NaCl): about 90 mM

IC50 (M.K. polB DNA polymerase; M.K. polB DNA polymerase activity, primer extension, read-out: IC50 (Inhibition constants in different media)): < 30 mM
Molecule: N [NH4OH]

Molecule: [Cl-].[Na+] [NaCl, sodium chloride]
effect on 3'-5' exonuclease activity of Mka PolB [1]: stimulates

Ki ([2]; inhibition by KCl, read-out: Ki (KCl), apparent inhibition constant): 42.6 ± 1 mM | Ki ([2]; inhibition by NaCl, nonlinear regression Eq. 2, read-out: Ki (NaCl), apparent inhibition constant): 51.5 ± 1 mM
B1: Pfu polymerase: whole size Pfu polymerase (protein, UniProt P61875 1-775, looked up)
chain: MILDVDYITEEGKPVIRLFKKENGKFKIEHDRTFRPYIYALLRDDSKIEEVKKITGERHGKIVRIVDVEKVEKKFLGKPITVWKLYLEHPQDVPTIREKVREHPAVVDIFEYDIPFAKRYLIDKGLIPMEGEEELKILAFDIETLYHEGEEFGKGPIIMISYADENEAKVITWKNIDLPYVEVVSSEREMIKRFLRIIREKDPDIIVTYNGDSFDFPYLAKRAEKLGIKLTIGRDGSEPKMQRIGDMTAVEVKGRIHFDLYHVITRTINLPTYTLEAVYEAIFGKPKEKVYADEIAKAWESGENLERVAKYSMEDAKATYELGKEFLPMEIQLSRLVGQPLWDVSRSSTGNLVEWFLLRKAYERNEVAPNKPSEEEYQRRLRESYTGGFVKEPEKGLWENIVYLDFRALYPSIIITHNVSPDTLNLEGCKNYDIAPQVGHKFCKDIPGFIPSLLGHLLEERQKIKTKMKETQDPIEKILLDYRQKAIKLLANSFYGYYGYAKARWYCKECAESVTAWGRKYIELVWKELEEKFGFKVLYIDTDGLYATIPGGESEEIKKKALEFVKYINSKLPGLLELEYEGFYKRGFFVTKKRYAVIDEEGKVITRGLEIVRRDWSEIAKETQARVLETILKHGDVEEAVRIVKEVIQKLANYEIPPEKLAIYEQITRPLHEYKAIGPHVAVAKKLAAKGVKIKPGMVIGYIVLRGDGPISNRAILAEEYDPKKHKYDAEYYIENQVLPAVLRILEGFGYRKEDLRYQKTRQVGLTSWLNIKKS
modifications: full-length
